Assay results as given in patent US20150329512A1, “METHOD AND PHARMACEUTICAL COMPOSITION FOR TREATING LUNG CANCER” (National Dong Hua University, priority 2014, published 2015).

Legend:
[1] = system: human lung cancer in lung of mice; assay: Mouse model bearing human lung cancer in lung (A549 or Anti-Dox-A549 cells injected); conditions: HCD 0.0318 or 1.272 mg/kg, PG 0.1615 or 0.646 mg/kg body weight, IT injection to the lung, monitored every five days for thirty days
Description: The animal experiments were approved by the National Dong-Hwa University Animal Ethics Committee and the experimental protocols were used according to the “Guide for the Care and Use of Laboratory Animals” of National Dong-Hwa University. 1×10^7 of A549 cells or Anti-Dox-A549 cells were suspended in PBS to prepare cell suspensions. On day 0, C57/BL6 mice (6-8 weeks old, n=6) were weighted and anesthetic using pentobarbital (5 mg/ml). Then, the mice were injected with the cell suspension (1×10^7 cells per mouse) into the lung by IT. The injection was repeated every 7 days for 21 days. Another group of mice were injected with 10% EtOH as comparative group according to the same procedure set forth above.
After the establishment of human lung cancer in the experimental mice, the mice were maintained for one more week and then treated with HCD (0.0318 or 1.272 mg/kg body weight, in 10% ETOH with PBS), PG (0.1615 or 0.646 mg/kg body weight, in 10% ETOH with PBS) or 10% EtOH by IT injection (intrathecal injection) to the lung. The body weight was monitored every five days for thirty days. After thirty days, the mice were sacrificed and the lungs were checked for marker of human lung adenocarcinoma by H&E and IHC staining. The livers, kidneys and spleens of the mice were also examined to confirm the cytotoxicity of HCD and PG and to see if there was any metastasis happened.

A549 cells = assay: Cell cycle analysis by flow cytometer (PI staining); type: cell-based, human; conditions: A549
Description: (§1) The results of Example 2 in cell viability hinted the effects of HCD, PG, and Dox on arresting cell cycle. In this example, the phase of cell cycle of A549 cells and Anti-Dox-A549 cells after the treatment listed in Table 1 was determined by flow cytometer. Briefly, 7×10^4 cells per well were to inoculated in 12-wells plate and incubated overnight at 37° C., 5% CO2. Then, cells were treated according to the treatment listed in Table 1 by indicated time period. After treatment, cells were harvested by trypsin and fixed with 70% ethanol at −20° C. for at least 3 hr. The cells were washed in cold PBS twice and then incubated with 1 ml (v/v) staining solution (20 μg/m1 propidium iodide (PI), 0.1% Triton X-100, 0.2 mg/ml Rnase) at 37° C. for 30 minutes. Lastly, cells were analyzed by flow cytometer (Cytomics™ FC500, Backman, Fullerton, Calif., USA). Data from 10,000 cells were collected for each experimental group.

Anti-Dox-A549 cells = assay: as above; type: cell-based, human; conditions: Anti-Dox-A549
Description: as §1

CCCCCC1=C/C(=C/c2[nH]c(-c3ccc[nH]3)cc2OC)N=C1C [PG, Prodigiosin]
body weight of the experimental mice [1]: did not show significantly change
G0/G1 (%) (A549 cells; PG 2.5 μM, 6 hr): 46.3 ± 3.4 %
G2/M (%) (A549 cells; PG 2.5 μM, 6 hr): 32.3 ± 3.1 %
S (%) (A549 cells; PG 2.5 μM, 6 hr): 17.3 ± 1.2 %
Sub G1 (%) (A549 cells; PG 2.5 μM, 6 hr): 0.3 ± 0.1%
G0/G1 (%) (A549 cells; PG 2.5 μM, 12 hr): 62.7 ± 2.7%
G2/M (%) (A549 cells; PG 2.5 μM, 12 hr): 27.6 ± 0.7 %
S (%) (A549 cells; PG 2.5 μM, 12 hr): 6.6 ± 2.1 %
Sub G1 (%) (A549 cells; PG 2.5 μM, 12 hr): 0.4 ± 0.2%
G0/G1 (%) (A549 cells; PG 2.5 μM, 24 hr): 85 ± 0.6^ %
G2/M (%) (A549 cells; PG 2.5 μM, 24 hr): 11.6 ± 0.7%
S (%) (A549 cells; PG 2.5 μM, 24 hr): 1.9 ± 0.15 %
Sub G1 (%) (A549 cells; PG 2.5 μM, 24 hr): 0.26 ± 0.05%
G0/G1 (%) (A549 cells; PG 5 μM, 6 hr): 42.9 ± 2.1 %
G2/M (%) (A549 cells; PG 5 μM, 6 hr): 34.8 ± 0.9 %
S (%) (A549 cells; PG 5 μM, 6 hr): 18.2 ± 0.8 %
Sub G1 (%) (A549 cells; PG 5 μM, 6 hr): 0.26 ± 0.05%
G0/G1 (%) (A549 cells; PG 5 μM, 12 hr): 53.3 ± 1.2 %
G2/M (%) (A549 cells; PG 5 μM, 12 hr): 33.1 ± 0.2 %
S (%) (A549 cells; PG 5 μM, 12 hr): 10.0 ± 2.0 %
Sub G1 (%) (A549 cells; PG 5 μM, 12 hr): 0.36 ± 0.2%
G0/G1 (%) (A549 cells; PG 5 μM, 24 hr): 76.2 ± 8.1 %
G2/M (%) (A549 cells; PG 5 μM, 24 hr): 22.2 ± 1.1%
S (%) (A549 cells; PG 5 μM, 24 hr): 3.0 ± 0.75 %
Sub G1 (%) (A549 cells; PG 5 μM, 24 hr): 0.23 ± 0.05%
G0/G1 (%) (A549 cells; PG 10 μM, 6 hr): 43.8 ± 3.1 %
G2/M (%) (A549 cells; PG 10 μM, 6 hr): 27 ± 2.9%
S (%) (A549 cells; PG 10 μM, 6 hr): 18.8 ± 0.5 %
Sub G1 (%) (A549 cells; PG 10 μM, 6 hr): 0.33 ± 0.05%
G0/G1 (%) (A549 cells; PG 10 μM, 12 hr): 41.6 ± 1.3 %
G2/M (%) (A549 cells; PG 10 μM, 12 hr): 29.1 ± 3.0 %
S (%) (A549 cells; PG 10 μM, 12 hr): 16.6 ± 1.4%
Sub G1 (%) (A549 cells; PG 10 μM, 12 hr): 0.46 ± 0.1%
G0/G1 (%) (A549 cells; PG 10 μM, 24 hr): 43.8 ± 2.4 %
G2/M (%) (A549 cells; PG 10 μM, 24 hr): 26.5 ± 10.0%
S (%) (A549 cells; PG 10 μM, 24 hr): 9.1 ± 1.7 %
Sub G1 (%) (A549 cells; PG 10 μM, 24 hr): 0.9 ± 0.7%
G0/G1 (%) (Anti-Dox-A549 cells; PG 2.5 μM, 6 hr): 58.9 ± 7.1%
G2/M (%) (Anti-Dox-A549 cells; PG 2.5 μM, 6 hr): 23.5 ± 1.9%
S (%) (Anti-Dox-A549 cells; PG 2.5 μM, 6 hr): 18.5 ± 0.5%
Sub G1 (%) (Anti-Dox-A549 cells; PG 2.5 μM, 6 hr): 2.2 ± 0.1 %
G0/G1 (%) (Anti-Dox-A549 cells; PG 2.5 μM, 12 hr): 65.3 ± 2.9%
G2/M (%) (Anti-Dox-A549 cells; PG 2.5 μM, 12 hr): 17.2 ± 6.5%
S (%) (Anti-Dox-A549 cells; PG 2.5 μM, 12 hr): 13.8 ± 4.7%
Sub G1 (%) (Anti-Dox-A549 cells; PG 2.5 μM, 12 hr): 1.6 ± 1.2%
G0/G1 (%) (Anti-Dox-A549 cells; PG 2.5 μM, 24 hr): 81.8 ± 5.7%
G2/M (%) (Anti-Dox-A549 cells; PG 2.5 μM, 24 hr): 8.8 ± 1.4%
S (%) (Anti-Dox-A549 cells; PG 2.5 μM, 24 hr): 3.1 ± 1.3 %
Sub G1 (%) (Anti-Dox-A549 cells; PG 2.5 μM, 24 hr): 0.9 ± 0.3%
G0/G1 (%) (Anti-Dox-A549 cells; PG 5 μM, 6 hr): 56 ± 1.3%
G2/M (%) (Anti-Dox-A549 cells; PG 5 μM, 6 hr): 23.6 ± 2.3%
S (%) (Anti-Dox-A549 cells; PG 5 μM, 6 hr): 18.7 ± 0.8%
Sub G1 (%) (Anti-Dox-A549 cells; PG 5 μM, 6 hr): 1.9 ± 0.3%
G0/G1 (%) (Anti-Dox-A549 cells; PG 5 μM, 12 hr): 62.7 ± 4.7 %
G2/M (%) (Anti-Dox-A549 cells; PG 5 μM, 12 hr): 19.2 ± 6.9%
S (%) (Anti-Dox-A549 cells; PG 5 μM, 12 hr): 16.8 ± 5.5%
Sub G1 (%) (Anti-Dox-A549 cells; PG 5 μM, 12 hr): 2.9 ± 1.0%
G0/G1 (%) (Anti-Dox-A549 cells; PG 5 μM, 24 hr): 76.2 ± 6.0%
G2/M (%) (Anti-Dox-A549 cells; PG 5 μM, 24 hr): 13.8 ± 1.7%
S (%) (Anti-Dox-A549 cells; PG 5 μM, 24 hr): 3.7 ± 2.0 %
Sub G1 (%) (Anti-Dox-A549 cells; PG 5 μM, 24 hr): 4.3 ± 5.3%
G0/G1 (%) (Anti-Dox-A549 cells; PG 10 μM, 6 hr): 54.6 ± 3.0 %
G2/M (%) (Anti-Dox-A549 cells; PG 10 μM, 6 hr): 19.8 ± 6.6%
S (%) (Anti-Dox-A549 cells; PG 10 μM, 6 hr): 22.9 ± 3.4 %
Sub G1 (%) (Anti-Dox-A549 cells; PG 10 μM, 6 hr): 2 ± 0.6%
G0/G1 (%) (Anti-Dox-A549 cells; PG 10 μM, 12 hr): 53.2 ± 2.5 %
G2/M (%) (Anti-Dox-A549 cells; PG 10 μM, 12 hr): 22.8 ± 6.4%
S (%) (Anti-Dox-A549 cells; PG 10 μM, 12 hr): 21.4 ± 3.7%
Sub G1 (%) (Anti-Dox-A549 cells; PG 10 μM, 12 hr): 1.8 ± 0.2%
G0/G1 (%) (Anti-Dox-A549 cells; PG 10 μM, 24 hr): 44.3 ± 7.7 %
G2/M (%) (Anti-Dox-A549 cells; PG 10 μM, 24 hr): 27.9 ± 1.9 %
S (%) (Anti-Dox-A549 cells; PG 10 μM, 24 hr): 11.7 ± 3.7%
Sub G1 (%) (Anti-Dox-A549 cells; PG 10 μM, 24 hr): 6.9 ± 4.3%
